Laboratory results from paper PMC13324472, “A family of ribosome hibernation factors widespread in Archaea” (Nature Communications, 2026).

Molecular target: T1, HibA-CM (isolated HibA N-terminal domain, CBS module) (Pyrococcus abyssi, UniProt Q9UYR4)
T1 construct: gene PAB0961; N-terminal CBS module (residues 1-269 given as the module), made by stop codon at position 272; N-terminal His6 tag, expressed in E. coli Rosetta, Talon and Superdex 200
Assay: isothermal titration calorimetry
Type: binding

T1 sequence (Q9UYR4 entry or part of it): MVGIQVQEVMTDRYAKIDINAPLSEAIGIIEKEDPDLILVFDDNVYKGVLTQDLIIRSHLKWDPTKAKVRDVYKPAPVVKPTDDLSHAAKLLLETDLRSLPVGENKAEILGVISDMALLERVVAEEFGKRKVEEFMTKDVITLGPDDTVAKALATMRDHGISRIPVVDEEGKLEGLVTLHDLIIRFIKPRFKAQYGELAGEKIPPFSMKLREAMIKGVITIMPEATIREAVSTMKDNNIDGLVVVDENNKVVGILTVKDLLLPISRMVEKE

Row | Kd [µM] | Structure (SMILES)
1 | 12 ± 2 | Nc1ncnc2c1ncn2[C@@H]1O[C@H](COP(=O)(O)O)[C@@H](O)[C@H]1O [AMP]
2 | 113 ± 21 | Nc1ncnc2c1ncn2[C@@H]1O[C@H](COP(=O)(O)OP(=O)(O)OP(=O)(O)O)[C@@H](O)[C@H]1O [ATP]
3 | 65 ± 1 | Nc1ncnc2c1ncn2[C@@H]1O[C@H](COP(=O)(O)OP(=O)(O)O)[C@@H](O)[C@H]1O [ADP]
